Measurements reported in patent publication US8101550B2, “Anthranilic acid diamide derivative with hetero-aromatic and hetero-cyclic substituents” (Bayer Cropscience AG, priority 2006, dated 2012).

System: not listed separately
Assay: log P determination by HPLC on reverse-phase column (EEC Directive 79/831 Annex V.A8)
Format: physicochemical
Conditions: HPLC on reverse-phase column
How it was run: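 Reverse-phase C18 HPLC at 43 °C, following EEC Directive 79/831 Annex V.A8. Acidic LC-MS used pH 2.7 eluents (0.1% aqueous formic acid and acetonitrile with 0.1% formic acid) on a 10–95% acetonitrile linear gradient. Log P was interpolated linearly from retention times against unbranched C3–C16 alkan-2-ones of known log P.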

SMILES	logP
CNC(=O)c1cc(Cl)cc(C)c1NC(=O)c1cc(Cn2cc(Cl)cn2)nn1-c1ncccc1Cl [I-1-4]	2.54
Cc1cc(Br)cc(C(=O)NC(C)C)c1NC(=O)c1cc(Cn2cc(C(F)(F)C(F)(F)F)c(C(F)(F)C(F)(F)F)n2)nn1-c1ncccc1Cl [I-1-13]	4.98
Cc1cc(Cl)cc(C(=O)NC(C)C)c1NC(=O)c1cc(Cn2cc(I)c(C(F)(F)C(F)(F)F)n2)nn1-c1ncccc1Cl [I-1-14]	4.29
Cc1cc(Cl)cc(C(=O)NC(C)C)c1NC(=O)c1cc(Cn2cc(Cl)c(C(F)(F)F)n2)nn1-c1ncccc1Cl [I-1-15]	3.85
Cc1cc(Br)cc(C(=O)NC(C)C)c1NC(=O)c1cc(Cn2nc(C(F)(F)F)nc2C(F)(F)F)nn1-c1ncccc1Cl [I-1-22]	3.91
CNC(=O)c1cc(Cl)cc(C)c1NC(=O)c1cc(Cn2nc(C(F)(F)C(F)(F)F)nc2C(F)(F)C(F)(F)F)nn1-c1ncccc1Cl [I-1-26]	4.17
Cc1cc(Cl)cc(C(=O)NC(C)C)c1NC(=O)c1cc(Cn2nc(C(F)(F)C(F)(F)F)nc2C(F)(F)C(F)(F)F)nn1-c1ncccc1Cl [I-1-29]	4.64

Continued, values first:

logP	SMILES
4.39	CNC(=O)c1cc(Cl)cc(C)c1NC(=O)c1cc(Cn2cc(C(F)(F)C(F)(F)F)c(C(F)(F)C(F)(F)F)n2)nn1-c1ncccc1Cl [I-1-3]
4.45	CNC(=O)c1cc(Cl)cc(C)c1NC(=O)c1cc(Cn2nc(C(F)(F)C(F)(F)F)cc2C(F)(F)C(F)(F)F)nn1-c1ncccc1Cl [I-1-27]
4.63	Cc1cc(Cl)cc(C(=O)NC(C)C)c1NC(=O)c1cc(Cn2nc(C(F)(F)C(F)(F)F)c(C(F)(F)F)c2F)nn1-c1ncccc1Cl [I-1-28]

System: Heliothis virescens eggs
Assay: Heliothis virescens test
Format: in vivo
Conditions: 300 ppm; eggs treated
Procedure: (§1) An appropriate preparation of active compound is prepared by mixing the active compound with the stated amounts of solvent and diluting the concentrate with […] water to the desired concentration.
The Heliothis virescens eggs are treated with a preparation of active compound at the desired concentration.
(§2) After the desired time the effect in % is determined. 100% means that all of the eggs/larvae have been killed; 0% means that no eggs/larvae have been killed.

SMILES	Kill level after 6-7 d in % [%]
Cc1cc(Br)cc(C(=O)NC(C)C)c1NC(=O)c1cc(Cn2cc(C(F)(F)C(F)(F)F)c(C(F)(F)C(F)(F)F)n2)nn1-c1ncccc1Cl [I-1-13]	100
Cc1cc(Cl)cc(C(=O)NC(C)C)c1NC(=O)c1cc(Cn2cc(I)c(C(F)(F)C(F)(F)F)n2)nn1-c1ncccc1Cl [I-1-14]	100
Cc1cc(Cl)cc(C(=O)NC(C)C)c1NC(=O)c1cc(Cn2cc(Cl)c(C(F)(F)F)n2)nn1-c1ncccc1Cl [I-1-15]	100

System: Myzus persicae
Assay: Myzus persicae test
Format: in vivo
Conditions: 30 ppm; preparation provided for consumption
Procedure: as §1
The Myzus persicae is provided with a preparation of active compound at the desired concentration for consumption.
After the desired time the effect in % is determined. 100% means that all of the aphids have been killed; 0% means that no aphids have been killed.

SMILES	Kill level after 6-7 d in % [%]
Cc1cc(Br)cc(C(=O)NC(C)C)c1NC(=O)c1cc(Cn2cc(C(F)(F)C(F)(F)F)c(C(F)(F)C(F)(F)F)n2)nn1-c1ncccc1Cl [I-1-13]	100
Cc1cc(Cl)cc(C(=O)NC(C)C)c1NC(=O)c1cc(Cn2cc(I)c(C(F)(F)C(F)(F)F)n2)nn1-c1ncccc1Cl [I-1-14]	100
Cc1cc(Cl)cc(C(=O)NC(C)C)c1NC(=O)c1cc(Cn2cc(Cl)c(C(F)(F)F)n2)nn1-c1ncccc1Cl [I-1-15]	100

System: Aedes aegypti larvae
Assay: Aedes aegypti test
Format: in vivo
Conditions: 30 ppm; larvae treated
Procedure: as §1
The Aedes aegypti larvae are treated with a preparation of active compound at the desired concentration.
After the desired time the effect in % is determined. 100% means that all of the Aedes aegypti have been killed; 0% means that no Aedes aegypti have been killed.

SMILES	Kill level after 2-4 d in % [%]
Cc1cc(Br)cc(C(=O)NC(C)C)c1NC(=O)c1cc(Cn2cc(C(F)(F)C(F)(F)F)c(C(F)(F)C(F)(F)F)n2)nn1-c1ncccc1Cl [I-1-13]	100
Cc1cc(Cl)cc(C(=O)NC(C)C)c1NC(=O)c1cc(Cn2cc(I)c(C(F)(F)C(F)(F)F)n2)nn1-c1ncccc1Cl [I-1-14]	100
Cc1cc(Cl)cc(C(=O)NC(C)C)c1NC(=O)c1cc(Cn2cc(Cl)c(C(F)(F)F)n2)nn1-c1ncccc1Cl [I-1-15]	100

System: Diabrotica undecimpunctata eggs
Assay: Diabrotica undecimpunctata test
Format: in vivo
Conditions: 300 ppm; eggs treated
Procedure: as §1
The Diabrotica undecimpunctata eggs are treated with a preparation of active compound at the desired concentration.
as §2

SMILES	Kill level after 2-5 d in % [%]
Cc1cc(Br)cc(C(=O)NC(C)C)c1NC(=O)c1cc(Cn2cc(C(F)(F)C(F)(F)F)c(C(F)(F)C(F)(F)F)n2)nn1-c1ncccc1Cl [I-1-13]	100
Cc1cc(Cl)cc(C(=O)NC(C)C)c1NC(=O)c1cc(Cn2cc(I)c(C(F)(F)C(F)(F)F)n2)nn1-c1ncccc1Cl [I-1-14]	100
Cc1cc(Cl)cc(C(=O)NC(C)C)c1NC(=O)c1cc(Cn2cc(Cl)c(C(F)(F)F)n2)nn1-c1ncccc1Cl [I-1-15]	100

System: caterpillars of the armyworm (Spodoptera frugiperda)
Assay: Spodoptera frugiperda test (cabbage leaves, immersion)
Format: in vivo
Conditions: 0.8 g/ha; cabbage leaves immersed
Procedure: (§3) An appropriate preparation of active compound is prepared by mixing 1 part by weight of active compound with the stated amounts of solvent and emulsifier and diluting the concentrate with emulsifier-containing water to the desired concentration.
Cabbage leaves (Brassica oleracea) are treated by immersion into a preparation of active compound at the desired concentration and, are populated with caterpillars of the armyworm (Spodoptera frugiperda) while the leaves are still wet.
After the desired time the effect in % is determined. 100% means that all of the caterpillars have been killed; 0% means that no caterpillars have been killed.
Cabbage leaves (Brassica oleracea) are treated by immersion into a preparation of active compound at the desired concentration and are populated with caterpillars of the armyworm (Spodoptera frugiperda) while the leaves are still wet.

SMILES	Kill level after 7 d in % [%]
CNC(=O)c1cc(Cl)cc(C)c1NC(=O)c1cc(Cn2cc(C(F)(F)C(F)(F)F)c(C(F)(F)C(F)(F)F)n2)nn1-c1ncccc1Cl [I-1-3]	100

Same assay, conditions: 4 g/ha; cabbage leaves immersed

SMILES	Kill level after 7 d in % [%]
Cc1cc(Br)cc(C(=O)NC(C)C)c1NC(=O)c1cc(Cn2nc(C(F)(F)F)nc2C(F)(F)F)nn1-c1ncccc1Cl [I-1-22]	100

Same assay, conditions: 20 g/ha; cabbage leaves immersed

SMILES	Kill level after 7 d in % [%]
CNC(=O)c1cc(Cl)cc(C)c1NC(=O)c1cc(Cn2nc(C(F)(F)C(F)(F)F)cc2C(F)(F)C(F)(F)F)nn1-c1ncccc1Cl [I-1-27]	83

Same assay, conditions: 100 g/ha; cabbage leaves immersed

SMILES	Kill level after 7 d in % [%]
CNC(=O)c1cc(Cl)cc(C)c1NC(=O)c1cc(Cn2cc(C(F)(F)C(F)(F)F)c(C(F)(F)C(F)(F)F)n2)nn1-c1ncccc1Cl [I-1-3]	100
CNC(=O)c1cc(Cl)cc(C)c1NC(=O)c1cc(Cn2cc(Cl)cn2)nn1-c1ncccc1Cl [I-1-4]	100
Cc1cc(Br)cc(C(=O)NC(C)C)c1NC(=O)c1cc(Cn2cc(C(F)(F)C(F)(F)F)c(C(F)(F)C(F)(F)F)n2)nn1-c1ncccc1Cl [I-1-13]	100
Cc1cc(Cl)cc(C(=O)NC(C)C)c1NC(=O)c1cc(Cn2cc(I)c(C(F)(F)C(F)(F)F)n2)nn1-c1ncccc1Cl [I-1-14]	100
Cc1cc(Cl)cc(C(=O)NC(C)C)c1NC(=O)c1cc(Cn2cc(Cl)c(C(F)(F)F)n2)nn1-c1ncccc1Cl [I-1-15]	100
Cc1cc(Br)cc(C(=O)NC(C)C)c1NC(=O)c1cc(Cn2nc(C(F)(F)F)nc2C(F)(F)F)nn1-c1ncccc1Cl [I-1-22]	100
CNC(=O)c1cc(Cl)cc(C)c1NC(=O)c1cc(Cn2nc(C(F)(F)C(F)(F)F)nc2C(F)(F)C(F)(F)F)nn1-c1ncccc1Cl [I-1-26]	100
Cc1cc(Cl)cc(C(=O)NC(C)C)c1NC(=O)c1cc(Cn2nc(C(F)(F)C(F)(F)F)c(C(F)(F)F)c2F)nn1-c1ncccc1Cl [I-1-28]	100
Cc1cc(Cl)cc(C(=O)NC(C)C)c1NC(=O)c1cc(Cn2nc(C(F)(F)C(F)(F)F)nc2C(F)(F)C(F)(F)F)nn1-c1ncccc1Cl [I-1-29]	100

System: larvae of the leafminer fly (Liriomyza trifolii)
Assay: Liriomyza trifolii test
Format: in vivo
Conditions: 500 ppm; infested bean leaf discs sprayed
Procedure: as §3
Bean leaf discs (Phaseolus vulgaris) infested by larvae of the leafminer fly (Liriomyza trifolii) are sprayed with a preparation of active compound at the desired concentration.
After the desired time the effect in % is determined. 100% means that all of the leafminer flies have been killed; 0% means that no leafminer flies have been killed.

SMILES	Kill level after 7 d in % [%]
CNC(=O)c1cc(Cl)cc(C)c1NC(=O)c1cc(Cn2cc(C(F)(F)C(F)(F)F)c(C(F)(F)C(F)(F)F)n2)nn1-c1ncccc1Cl [I-1-3]	98
CNC(=O)c1cc(Cl)cc(C)c1NC(=O)c1cc(Cn2cc(Cl)cn2)nn1-c1ncccc1Cl [I-1-4]	95
Cc1cc(Br)cc(C(=O)NC(C)C)c1NC(=O)c1cc(Cn2nc(C(F)(F)F)nc2C(F)(F)F)nn1-c1ncccc1Cl [I-1-22]	98
